Results published in US20250134895A1, “METHODS AND COMPOSITIONS FOR TREATING ALPHA-SYNUCLEIN-MEDIATED NEURODEGENERATION” (UNIVERSITY HEALTH NETWORK, priority 2021, published 2025).

How the values were obtained:
[1] = test system: full-length Gaussia princeps luciferase; assay: Activity of full-length Gaussia luciferase alone in H4 cells; type: cell-based
Method: (§1) For controls in this assay, vehicle (i.e., DMSO), rapamycin, and bafilomycin A were used. Rapamycin, or sirolimus, is a small molecule that activates autophagy by inhibiting mTOR (mammalian target of rapamycin). […] To test this possibility, cells expressing α-synuclein were treated with each of the compounds and a cell permeable, resazurin-based assay was used to test for cell viability.
(§2) H4 neuroglioma cells (ATCC, HTB-148) were maintained in Dulbecco's Modified Eagle Medium plus high glucose, L-glutamine, and sodium pyruvate (ThermoFisher, 11995-065) with 10% heat-inactivated fetal bovine serum (ThermoFisher, 16140071) and 1% antibiotic-antimycotic cocktail (ThermoFisher, 15240062) at 37° C. and 5% CO2. DNA expression constructs encoding for full-length human α-synuclein fused to the N-terminal fragment of Gaussia princeps luciferase (syn-luc1), full-length human α-synuclein fused to the C-terminal fragment of Gaussia princeps luciferase (syn-luc2), and full-length Gaussia princeps luciferase were kindly provided by Dr. Pamela McLean, Mayo Clinic Jacksonville.^33 Cells were transiently co-transfected with syn-luc1 and syn-luc2 or transfected with luciferase alone using Superfect transfection reagent (Qiagen, 301305) according to the manufacturer's instructions. Twenty-four hours after transfection, cells were plated on a 96-well microplate at 60,000 cells per well. Twenty-four hours after plating, cells were treated with drugs or vehicle control. Following 24 hours of treatment, cells were washed 1 time with PBS and bioluminescence was measured using an automated CLARIOstar plate reader (Mandel, 430-0505). Cell permeable, native coelenterazine was used as the Gaussia luciferase substrate. Lyophilized coelenterazine (Nanolight, 303-500) was reconstituted in NanoFuel Solvent (Nanolight, 399-1), then diluted in PBS to 16.6 μg/mL, and dispensed per well to a final concentration of 20 μM). The bioluminescent signal generated by the luciferase enzyme was assessed at 470 nm over 5 seconds. Raw luminescence units were normalized to the DMSO vehicle control of each 96-well microplate. To assess cell viability, H4 neuroglioma cells were prepared and treated as described above and, 1 hour prior to viability analysis, cells were treated with PrestoBlue viability reagent (ThermoFisher, A13261) according to the manufacturer's instructions. Fluorescence was automatically measured using a CLARIOstar plate reader (Mandel, 430-0505) and then normalized to the fluorescence measure of the DMSO vehicle control.

[2] = target: T1, α-synuclein oligomers (Homo sapiens, UniProt P37840); assay: Venus YFP protein-fragment complementation assay in rat primary cortical neurons; type: cell-based; details: 72 hours; for YFP fluorescence compared with vehicle control: 10 μM
[3] = target: T1, α-synuclein oligomers; assay: Gaussia luciferase protein-fragment complementation cell assay of α-synuclein oligomers in H4 neuroglioma cells; type: cell-based; design: full-length human α-synuclein fused to the N-terminal fragment of Gaussia princeps luciferase (syn-luc1); full-length human α-synuclein fused to the C-terminal fragment of Gaussia princeps luciferase (syn-luc2); expressed in transfected cells; host or cells: H4 neuroglioma cells (ATCC, HTB-148), transient co-transfection; details: for α-syn oligomers as measured by luciferase activity / decrease in luciferase activity compared with vehicle alone: 1 μM or 10 μM; for α-syn oligomers as measured by luciferase activity: Example 9; for decrease in luciferase activity compared with vehicle alone: 24 hours of treatment
Method: as §1, §2
We used a bioluminescent protein-fragment complementation assay in which human H4 neuroglioma cells co-express human α-synuclein tagged with the N- or C-terminal half of Gaussia princeps luciferase (FIG. 12). Reconstitution of a complete and active luciferase molecule from the fragments occurs upon α-synuclein oligomerization, and so luminescence provides an indirect measure of α-synuclein oligomer levels. H4 neuroglioma cells were co-transfected with α-syn luciferase fragments, and constructs were plated into a 96-well plate and treated with either 1 μM or 10 μM of each of the 19 drug compounds.

[4] = test system: transgenic A30P α-synuclein C. elegans; assay: Coiler score and locomotion of C. elegans expressing A30P α-synuclein in dopaminergic neurons; type: in vivo, Caenorhabditis elegans; details: for reduction in coiling compared with vehicle alone (decrease): 100 μM of drug, 3 days on drug plates
Method: Using high-resolution, multi-worm tracking with custom image processing, methods were developed for semi-automated and blinded scoring of circularity for a population of simultaneously recorded animals (n=10 per recording). A coiler score was determined for the population tested by first calculating the circularity value for each animal in each frame of video and then calculating the proportion of circularity values >0.6. […] The coiler phenotype is an abnormal motor behaviour previously reported for several unc C. elegans strains with mutations affecting neuronal function.
Animals were synchronized by isolating eggs using alkaline hypochlorite treatment and hatching overnight. Larvae were plated onto NGM agar plates with OP50 and grown for 4 days before recording locomotion. For individual C. elegans recordings, a single adult animal was randomly picked, washed for 1 to 2 minutes in M9 buffer, and then transferred to a fresh NGM plate without food for imaging. Video images were acquired (2 frames per second) for up to 6 minutes using a sCMOS camera (pco.edge, PCO) mounted on a stereomicroscope (Olympus MVX10 MacroView) controlled using the μManager software.^55 A total of 40 individual animals were imaged for each strain. For C. elegans population recordings, ten adult animals were randomly removed using an eyelash pick, washed for 1 minute in M9 buffer, and then transferred to a fresh NGM plate without food, with a ring of copper sulfate solution (150 mM) around the area of recording (a chemorepellent to keep the animals in the recording frame). Exploratory locomotion was recorded using a CCD camera (GX1920, Allied Vision) which was attached to a dissecting stereomicroscope (Leica M165C, 1.0× PlanApo lens). A Labview program captured video (2 frames per second) at 1936×1456 resolution. Using ImageJ, the displacement, perimeter, and area of each animal was calculated, from which a circularity value was computed using the following formula: circularity=4π(A/P^2), where A is the area of the animal's body and P is the perimeter of the animal's body (both expressed in arbitrary pixel units). […] Using MATLAB (Mathworks), various behavioural metrics including the coiler score were calculated, which is the percentage of frames with a circularity value >0.6. Speed was automatically computed from the ImageJ based WrmTrk plugin as the distance travelled by each animal (in pixels) over the amount of time that it was tracked (in seconds).56 Average speed was determined by calculating the weighted average of each tracked animal's speed within a single population of animals. On the day of the recording for dopamine or raclopride treatment, adult animals were washed for 1 minute in M9 buffer, treated in a solution containing either drug for 1 minute, and then placed onto fresh NGM plates without food, with a copper sulfate solution ring around the area of recording. […] Drug plates were prepared by adding each drug to LB medium with OP50 before spreading onto fresh NGM plates. The solvent used to dissolve each drug was used as vehicle control for the drug treatment experiments (M9 buffer for dopamine, distilled water for raclopride, DMSO for all other drugs).
After 72 hours of drug treatment, animals were randomly picked, washed, and recorded. A total of ten worms were recorded per population, and twelve populations were recorded for each of the four treatment groups. Locomotion was recorded for each population over a total of 1800 frames over three minutes. The animal's movement speed, area, and perimeter were automatically analyzed as previously described. Coiler score was calculated automatically using a ratio of the animal's area to perimeter, where a higher coiler score would represent a greater degree of α-synuclein-induced dopaminergic neuron dysfunction in vivo.

[5] = test system: H4 neuroglioma cells; details: for reduced cell survival: human, 24 h
Method: as §1, §2

[6] = test system: control GFP C. elegans; assay: Coiler score and locomotion of control GFP C. elegans; type: in vivo, Caenorhabditis elegans; details: 1 mM, animals not expressing α-synuclein
Method: Animals were synchronized by isolating eggs using alkaline hypochlorite treatment and hatching overnight. Larvae were plated onto NGM agar plates with OP50 and grown for 4 days before recording locomotion. For individual C. elegans recordings, a single adult animal was randomly picked, washed for 1 to 2 minutes in M9 buffer, and then transferred to a fresh NGM plate without food for imaging. Video images were acquired (2 frames per second) for up to 6 minutes using a sCMOS camera (pco.edge, PCO) mounted on a stereomicroscope (Olympus MVX10 MacroView) controlled using the μManager software.^55 A total of 40 individual animals were imaged for each strain. For C. elegans population recordings, ten adult animals were randomly removed using an eyelash pick, washed for 1 minute in M9 buffer, and then transferred to a fresh NGM plate without food, with a ring of copper sulfate solution (150 mM) around the area of recording (a chemorepellent to keep the animals in the recording frame). Exploratory locomotion was recorded using a CCD camera (GX1920, Allied Vision) which was attached to a dissecting stereomicroscope (Leica M165C, 1.0× PlanApo lens). […] Using ImageJ, the displacement, perimeter, and area of each animal was calculated, from which a circularity value was computed using the following formula: circularity=4π(A/P^2), where A is the area of the animal's body and P is the perimeter of the animal's body (both expressed in arbitrary pixel units). […] Using MATLAB (Mathworks), various behavioural metrics including the coiler score were calculated, which is the percentage of frames with a circularity value >0.6. Speed was automatically computed from the ImageJ based WrmTrk plugin as the distance travelled by each animal (in pixels) over the amount of time that it was tracked (in seconds).56 Average speed was determined by calculating the weighted average of each tracked animal's speed within a single population of animals. […]
C. elegans were grown and maintained as previously described (Examples 1-6). […] After 72 hours of drug treatment, animals were randomly picked, washed, and recorded. […]

## CCCC(=O)Nc1ccc(OCC(O)CNC(C)C)c(C(C)=O)c1 (centres unmarked) [Acebutolol]
[1]; 10 μM, FIG. 14
  changes in the activity of full-length Gaussia luciferase alone: No statistically significant changes
[2]
  YFP fluorescence compared with vehicle control: No significant differences
[3]
  α-syn oligomers as measured by luciferase activity: significant decrease

## CC(=O)Nc1ccc(O)cc1 [Acetaminophen]
[4]
  reduction in coiling compared with vehicle alone (decrease): 32%
[1]; Example 5, FIG. 5c
  changes in the activity of full-length Gaussia luciferase alone: No statistically significant changes
[3]
  decrease in luciferase activity compared with vehicle alone: 14%
[5]
  changes in viability: No statistically significant changes

## CO/C1=C\C(C)=C\[C@@H](C)[C@@H](O)[C@@H](C)C/C(C)=C/C=C/[C@H](OC)[C@@H]([C@@H](C)[C@@H](O)[C@H](C)[C@@]2(O)C[C@@H](O)[C@H](C)[C@@H](C(C)C)O2)OC1=O [Bafilomycin A1, bafilomycin A1]
[3]; rapamycin 2 μM, bafilomycin A1 50 nM
  change in α-synuclein oligomer levels (active controls): increase

## CN(C)CCCOc1nn(Cc2ccccc2)c2ccccc12 [Benzydamine]
[3]
  α-syn oligomers as measured by luciferase activity: significant decrease

## Cn1c(=O)c2c(ncn2C)n(C)c1=O [Caffeine]
[4]
  reduction in coiling compared with vehicle alone (decrease): 37%
[1]; Example 5, FIG. 5c
  changes in the activity of full-length Gaussia luciferase alone: No statistically significant changes
[3]
  decrease in luciferase activity compared with vehicle alone: 16%

## Oc1c(I)cc(Cl)c2cccnc12 [Clioquinol]
[3]
  α-syn oligomers as measured by luciferase activity: significant decrease

## NCCc1ccc(O)c(O)c1 [Dopamine, dopamine]
[4]; increasing concentrations, 1 minute treatment
  coiling with exogenous dopamine: decreased with treatment in a dose-dependent manner

## COc1cc([C@@H]2c3cc4c(cc3[C@@H](O[C@@H]3O[C@@H]5CO[C@@H](C)O[C@H]5[C@H](O)[C@H]3O)[C@H]3COC(=O)[C@H]23)OCO4)cc(OC)c1O [Etoposide]
[3]
  decrease in luciferase activity compared with vehicle alone: 30%
[5]
  reduced cell survival: > 15%

## Nc1ccn([C@@H]2CS[C@H](CO)O2)c(=O)n1 [Lamivudine]
[1]; 10 μM, FIG. 14
  changes in the activity of full-length Gaussia luciferase alone: No statistically significant changes
[2]
  YFP fluorescence compared with vehicle control: No significant differences
[3]
  α-syn oligomers as measured by luciferase activity: significant decrease

## Sc1ncnc2nc[nH]c12 [Mercaptopurine]
[4]; 100 μM, 72 hr, vs DMSO vehicle
  effect on coiling / coiler score: no effect
[1]; Example 5, FIG. 5c
  changes in the activity of full-length Gaussia luciferase alone: No statistically significant changes
[3]
  decrease in luciferase activity compared with vehicle alone: 17%
[5]
  changes in viability: No statistically significant changes

## NC(=O)C[S+]([O-])C(c1ccccc1)c1ccccc1 (centres unmarked) [Modafinil]
[3]
  α-syn oligomers as measured by luciferase activity: significant decrease
[5]; 1-20 μM, Example 9
  reduced cell viability (decrease): 32%
[5]; drugs 1-20 μM, FIG. 13
  concentration with significant loss in cell viability: < 5 µM

## CN1C(C(=O)Nc2ccccn2)=C(O)c2ccccc2S1(=O)=O [Piroxicam]
[3]
  decrease in luciferase activity compared with vehicle alone: 19%
[5]
  reduced cell survival: > 15%

## CCN1CCC[C@H]1CNC(=O)c1c(O)c(Cl)cc(Cl)c1OC [Raclopride, raclopride]
[6]
  coiling after D2 receptor blockade: recapitulated the coiling behaviour

## CO[C@H]1C[C@@H]2CC[C@@H](C)[C@@](O)(O2)C(=O)C(=O)N2CCCC[C@H]2C(=O)O[C@H]([C@H](C)C[C@@H]2CC[C@@H](O)[C@H](OC)C2)CC(=O)[C@H](C)/C=C(\C)[C@@H](O)[C@@H](OC)C(=O)[C@H](C)C[C@H](C)/C=C/C=C/C=C/1C [Rapamycin]
[4]
  reduction in coiling compared with vehicle alone (decrease): 30%
[2]; losartan 100 μM, rapamycin 50 nM, rifabutin 20 μM
  decrease in fluorescence compared with vehicle alone: 36%
[5]
  changes in viability: No statistically significant changes

## Cn1c(=O)c2[nH]cnc2n(C)c1=O [Theophylline]
[3]
  decrease in luciferase activity compared with vehicle alone: 8%

## CC[C@]1(O)C[C@H]2CN(CCc3c([nH]c4ccccc34)[C@@](C(=O)OC)(c3cc4c(cc3OC)N(C=O)[C@H]3[C@@](O)(C(=O)OC)[C@H](OC(C)=O)[C@]5(CC)C=CCN6CC[C@]43[C@@H]65)C2)C1 [Vincristine]
[3]
  decrease in luciferase activity compared with vehicle alone: 33%
[5]
  reduced cell survival: > 15%
